One test has as its system P. aeruginosa. The test is described as follows: Rescue concentration of substituted phenyl azaindole derivatives. The class given is cell-based. The conditions noted are these: Imipenem fixed at 1 μg/mL. How it is done:
(§1) The antibiotic adjuvant activity of the SPazaBIMs were evaluated in combination with representative antibiotics (representing 13 antibiotic classes) against the 19 pathogens strains listed in Table 3. To assess the adjuvant properties of the SP-azaBIM molecules, a modified checkerboard minimum inhibitory concentration assay was used. A fixed concentration of the respective antibiotic (susceptible breakpoint concentration) was mixed with a twofold dilution series of the test SP-azaBIM (FIG. 1). This was to determine the concentration of SP-azaBIM needed potentiate the antibiotic at a clinically susceptible breakpoint concentration. Antibiotic susceptible breakpoint concentrations for the respective bacteria were determined using Clinical Laboratory Standards Institute (CLSI) criteria M100 ED31.
(§2) In this study, only those antibiotics to which the bacterial was classed as resistant were included in the adjuvant assays. In this assay we recorded the rescue concentration of the SP-BIM for a respective antibiotic. The rescue concentration was defined as the concentration of the adjuvant that reduces the minimum inhibitory concentration (MIC) of an antibiotic to the susceptibility breakpoint.
(§3) Immediately prior to testing, the respective antibiotic and SP-azaBIM was dissolved in sterile deionised water at 20× the required test concentration. Each microtiter well was then inoculated with 180 μl of bacterial inoculum of 10^6 CFU/ml in ca-MHB, and 10 μl each if the antibiotic and SP-azaBIM was added to the plates. These plates were then incubated at 35° C. for 24 h under aerobic conditions. A similar method was followed for the fastidious pathogens except that they were cultured in ca-MHB with 5% sheep blood and 5% CO2.
Bacterial growth was visually inspected after the incubation period and the rescue concentration of the test SP-azaBIM was determined as the lowest concentration of the compound needed to reduce bacterial growth by 99.99% at the susceptible breakpoint concentration of the antibiotic. […] If the bacteria can tolerate this concentration in vitro, then the bacteria has an intermediate or absolute resistance toward that antibiotic. […]
(§4) Phenyl azaindole compounds are also tested for their adjuvant activities and the method is shown in Example 39.

The subject of test [1] is Carbapenem resistant Acinetobacter baumannii. The experiment in a line: Broth microdilution minimum inhibitory concentration. The class given is cell-based. The conditions noted are these: compound alone. As to the method:
(§5) Antibacterial activity of the synthesized compounds was determined following guidelines established by the Clinical and Laboratory Standards Institute M07-A10 (CLSI 2015), following the broth microdilution method. Briefly, the test articles were dissolved in 100% DMSO, diluted by 2-fold serial titrations in the same vehicle (100% DMSO), for a total of 11 concentrations. A 4 μL aliquot of each dilution was then added to 196 μL of broth medium seeded with the bacterial suspension in wells of a 96 well plate (bacterial count: 2×10^5 to 8×10^5 colony forming units/mL final). The highest test substance concentration was 1028 μg/mL, and the final vehicle concentration was 2 percent. Following incubation, the test plate was visually examined, and each well was scored for growth or complete inhibition of growth. The minimum inhibitory concentration was determined as the lowest concentration were no growth of the bacterial was observed. Each test article was assayed in duplicate.

Test [2] concerns Vancomycin resistant Enterococcus faecalis. The description is as above. Type of test: cell-based. The conditions noted are these: compound alone. As to the method:
as §5

For test [3], the system named is Carbapenem resistant Klebsiella pneumoniae. The test is described as above. Type of test: cell-based. The conditions noted are these: compound alone. As to the method:
as §5

For test [4], the system named is Methicillin resistant Staphylococcus aureus. The test is described as above. The class given is cell-based. The conditions noted are these: compound alone. As to the method: as §5
In test [5] the test system is Multidrug resistant Pseudomonas aeruginosa. The test is described as above. The class given is cell-based. The conditions noted are these: compound alone. As to the method:
as §5

The next test relates to MRSA. The test is described as follows: Rescue concentration of substituted phenyl azaindole derivatives. Type of test: cell-based, Staphylococcus aureus. The conditions noted are these: Amoxicillin fixed at 2 μg/mL. How it is done:
as §1, §2, §3
(§6) Bacterial growth was visually inspected after the incubation period and the rescue concentration of the test SP-azaBIM was determined as the lowest concentration of the compound needed to reduce bacterial growth by 99.99% at the susceptible breakpoint concentration of the antibiotic. For example, CLSI states that Pseudomonas aeruginosa is susceptible to the Imipenem if the MIC is ≤2 μg mL^−1. If the bacteria can tolerate this concentration in vitro, then the bacteria has an intermediate or absolute resistance toward that antibiotic. The goal was to determine the concentration of SP-azaBIM needed to cause P. aeruginosa death at 2 μg mL^−1 of Imipenem therefore restoring susceptibility of the bacteria to toward the antibiotic.
as §4

A further test relates to K. pneumoniae. Described as above. The conditions noted are these: for Rescue concentration, K. pneumoniae Ciprofloxacin (1 μg/mL): Ciprofloxacin fixed at 1 μg/mL; for Rescue concentration, K. pneumoniae Imipenem (1 μg/mL): Imipenem fixed at 1 μg/mL. The class given is cell-based. As to the method: as §1, §2, §3, §6, §4

In general, MIC refers to the lowest concentration that inhibits growth of the organism. Higher therefore signals a need for much substance. With `Oc1ccc(C(O)c2c[nH]c3ncccc23)cc1` (stereo not drawn) [Compound 4OH-7aza-OH, 4-(hydroxy(1H-pyrrolo[2,3-b]pyridin-3-yl)methyl)phenol], in the test with P. aeruginosa, the “Rescue concentration, P. aeruginosa Imipenem (1 μg/mL)” value is under 256 µg/mL. For the same compound, the MIC in test [1], in test [2], in test [3], in test [4] and in test [5] was under 1020 µg/mL in each case. Also, the “Rescue concentration, MRSA Amoxicillin (2 μg/mL)” value (“Rescue concentration … (2 μg/mL)” for short) in the test on MRSA was 128 µg/mL. Also, the “Rescue concentration, K. pneumoniae Ciprofloxacin (1 μg/mL)” value in the test on K. pneumoniae was under 256 µg/mL. Further, in the test with K. pneumoniae, the “Rescue concentration, K. pneumoniae Imipenem (1 μg/mL)” value was under 256 µg/mL.

On to `OC(c1ccc(Br)cc1)c1c[nH]c2cnccc12` (stereo not drawn) [Compound 4Br-6aza-OH, (4-bromophenyl)(1H-pyrrolo[2,3-c]pyridin-3-yl)methanol], for which, in the test with P. aeruginosa, the “Rescue concentration, P. aeruginosa Imipenem (1 μg/mL)” value amounted to 16 µg/mL. Further, the MIC in test [1], in test [2], in test [3], in test [4] and in test [5] was under 1020 µg/mL each time. Also, the “Rescue concentration … (2 μg/mL)” value in the test on MRSA worked out at 32 µg/mL. The “Rescue concentration, K. pneumoniae Ciprofloxacin (1 μg/mL)” value with K. pneumoniae was found to be 4 µg/mL. For the same compound, the “Rescue concentration, K. pneumoniae Imipenem (1 μg/mL)” value in the test with K. pneumoniae was 8 µg/mL.

On to `O=Cc1cccc(C(O)c2c[nH]c3c(Cl)nccc23)c1` (stereo not drawn) [iso-7Cl-6aza-OH, 3-((7-chloro-1H-pyrrolo[2,3-c]pyridin-3-yl)(hydroxy)methyl)benzaldehyde], for which the “Rescue concentration, P. aeruginosa Imipenem (1 μg/mL)” value with P. aeruginosa was under 256 µg/mL. In addition, the MIC in test [1], in test [2], in test [3], in test [4] and in test [5] was under 1020 µg/mL in each case. Also, the “Rescue concentration … (2 μg/mL)” value with MRSA stood at 32 µg/mL. Moreover, in the test on K. pneumoniae, the “Rescue concentration, K. pneumoniae Ciprofloxacin (1 μg/mL)” value is under 256 µg/mL. Besides, the “Rescue concentration, K. pneumoniae Imipenem (1 μg/mL)” value in the test with K. pneumoniae was under 256 µg/mL.

Take `OC(c1ccc(Br)cc1)c1c[nH]c2cnc(Cl)cc12` (stereo not drawn) [4Br-5Cl-6aza-OH, (4-bromophenyl)(5-chloro-1H-pyrrolo[2,3-c]pyridin-3-yl)methanol]: in the test with P. aeruginosa, the “Rescue concentration, P. aeruginosa Imipenem (1 μg/mL)” value is under 256 µg/mL. Besides, the MIC in test [1], in test [2], in test [3], in test [4] and in test [5] was under 1020 µg/mL each time. Besides, in the test with MRSA, the “Rescue concentration … (2 μg/mL)” value worked out at 0.5 µg/mL. For the same compound, the “Rescue concentration, K. pneumoniae Ciprofloxacin (1 μg/mL)” value in the test on K. pneumoniae is under 256 µg/mL. Besides, the “Rescue concentration, K. pneumoniae Imipenem (1 μg/mL)” value with K. pneumoniae is under 256 µg/mL.

Consider `O=[N+]([O-])c1ccc(C(O)c2c[nH]c3c(Cl)nc(Br)cc23)cc1` (stereo not drawn) [4NO2-5Br-7Cl-6aza-OH, (5-bromo-7-chloro-1H-pyrrolo[2,3-c]pyridin-3-yl)(4-nitrophenyl)methanol], for which, in the test with P. aeruginosa, the “Rescue concentration, P. aeruginosa Imipenem (1 μg/mL)” value was under 256 µg/mL. Further, the MIC in test [1], in test [2], in test [3], in test [4] and in test [5] was under 1020 µg/mL each time. Also, the “Rescue concentration … (2 μg/mL)” value with MRSA amounted to 16 µg/mL. For the same compound, in the test with K. pneumoniae, the “Rescue concentration, K. pneumoniae Ciprofloxacin (1 μg/mL)” value was under 256 µg/mL. The “Rescue concentration, K. pneumoniae Imipenem (1 μg/mL)” value in the test with K. pneumoniae is under 256 µg/mL.

Turning to `Oc1ccc(C(O)c2c[nH]c3cnccc23)cc1` (stereo not drawn) [Compound 4OH-6aza-OH, 4-(hydroxy(1H-pyrrolo[2,3-c]pyridin-3-yl)methyl)phenol], the “Rescue concentration, P. aeruginosa Imipenem (1 μg/mL)” value in the test with P. aeruginosa was determined as 256 µg/mL. For the same compound, the MIC in test [1], in test [2], in test [3], in test [4] and in test [5] was under 1020 µg/mL in each case. The “Rescue concentration … (2 μg/mL)” value with MRSA worked out at 32 µg/mL. Moreover, the “Rescue concentration, K. pneumoniae Ciprofloxacin (1 μg/mL)” value in the test on K. pneumoniae is under 256 µg/mL. The “Rescue concentration, K. pneumoniae Imipenem (1 μg/mL)” value with K. pneumoniae is under 256 µg/mL.

Regarding `COc1ccc(C(O)c2c[nH]c3cnc(Br)cc23)cc1OC` (stereo not drawn) [3,4 Di methoxy 5Br-6aza-OH, (5-bromo-1H-pyrrolo[2,3-c]pyridin-3-yl)(3,4-dimethoxyphenyl)methanol], the “Rescue concentration, P. aeruginosa Imipenem (1 μg/mL)” value in the test with P. aeruginosa was under 256 µg/mL. For the same compound, the MIC in test [1], in test [2], in test [3], in test [4] and in test [5] was under 1020 µg/mL in each case. Besides, the “Rescue concentration … (2 μg/mL)” value with MRSA turned out to be 2 µg/mL. Also, in the test with K. pneumoniae, the “Rescue concentration, K. pneumoniae Ciprofloxacin (1 μg/mL)” value was under 256 µg/mL. In addition, the “Rescue concentration, K. pneumoniae Imipenem (1 μg/mL)” value in the test with K. pneumoniae is under 256 µg/mL.

Consider `O=[N+]([O-])c1cccc(C(O)c2c[nH]c3ncc(Cl)cc23)c1` (stereo not drawn) [3NO2-5Cl-7aza-OH, (5-chloro-1H-pyrrolo[2,3-b]pyridin-3-yl)(3-nitrophenyl)methanol], for which the “Rescue concentration, P. aeruginosa Imipenem (1 μg/mL)” value in the test on P. aeruginosa was under 256 µg/mL. The MIC in test [1], in test [2], in test [3], in test [4] and in test [5] was under 1020 µg/mL throughout. The “Rescue concentration … (2 μg/mL)” value in the test with MRSA is under 256 µg/mL. Further, the “Rescue concentration, K. pneumoniae Ciprofloxacin (1 μg/mL)” value with K. pneumoniae is under 256 µg/mL. Also, the “Rescue concentration, K. pneumoniae Imipenem (1 μg/mL)” value with K. pneumoniae was under 256 µg/mL.

Turning to `O=[N+]([O-])c1cccc(C(O)c2c[nH]c3cnc(Cl)cc23)c1` (stereo not drawn) [3NO2-5Cl-6aza-OH, (5-chloro-1H-pyrrolo[2,3-c]pyridin-3-yl)(3-nitrophenyl)methanol], in the test with P. aeruginosa, the “Rescue concentration, P. aeruginosa Imipenem (1 μg/mL)” value is under 256 µg/mL. Besides, the MIC in test [1], in test [2], in test [3], in test [4] and in test [5] was under 1020 µg/mL in each case. In the test with MRSA, the “Rescue concentration … (2 μg/mL)” value is under 256 µg/mL. For the same compound, in the test on K. pneumoniae, the “Rescue concentration, K. pneumoniae Ciprofloxacin (1 μg/mL)” value is under 256 µg/mL. Besides, the “Rescue concentration, K. pneumoniae Imipenem (1 μg/mL)” value in the test with K. pneumoniae is under 256 µg/mL.

For `O=[N+]([O-])c1ccccc1C(O)c1c[nH]c2ncccc12` (stereo not drawn) [Compound 2NO2-7aza-OH, (2-nitrophenyl)(1H-pyrrolo[2,3-b]pyridin-3-yl)methanol], the “Rescue concentration, P. aeruginosa Imipenem (1 μg/mL)” value in the test on P. aeruginosa is under 256 µg/mL. Besides, the MIC in test [1], in test [2], in test [3], in test [4] and in test [5] was under 1020 µg/mL each time. Further, in the test on MRSA, the “Rescue concentration … (2 μg/mL)” value is 256 µg/mL. Moreover, the “Rescue concentration, K. pneumoniae Ciprofloxacin (1 μg/mL)” value with K. pneumoniae is under 256 µg/mL. Besides, in the test on K. pneumoniae, the “Rescue concentration, K. pneumoniae Imipenem (1 μg/mL)” value was under 256 µg/mL.

Regarding `O=[N+]([O-])c1ccc(C(O)c2c[nH]c3ncc(F)cc23)cc1` (stereo not drawn) [4NO2-5Fl-7aza-OH, (5-fluoro-1H-pyrrolo[2,3-b]pyridin-3-yl)(4-nitrophenyl)methanol], the “Rescue concentration, P. aeruginosa Imipenem (1 μg/mL)” value in the test with P. aeruginosa is under 256 µg/mL. For the same compound, the minimum inhibitory concentration (MIC) in test [1], in test [2], in test [3], in test [4] and in test [5] was under 1020 µg/mL in each case. Also, in the test with MRSA, the “Rescue concentration … (2 μg/mL)” value amounted to 16 µg/mL. In addition, the “Rescue concentration, K. pneumoniae Ciprofloxacin (1 μg/mL)” value with K. pneumoniae is under 256 µg/mL. Further, the “Rescue concentration, K. pneumoniae Imipenem (1 μg/mL)” value with K. pneumoniae is under 256 µg/mL.

Source of the values: US20230382926A1, “COMPOUNDS AND USES THEREOF” (The University of The West Indies, priority 2022, published 2023).
